Results reported in article PMC9574867, “Discovery and Characterization of Synthesized and FDA-Approved Inhibitors of Clostridial and Bacillary Collagenases” (Journal of Medicinal Chemistry, 2022).
Converted amounts (≈) assume the structure as drawn.

Experiments:
[1] = biological target: T1, MMP-1 (Homo sapiens, UniProt P03956); experiment: MMP inhibition assay, MMP-1; type: biochemical
T1 construct: catalytic domains of three human MMPs; purchased Sigma-Aldrich
T1 sequence (P03956 98-276 limits assumed): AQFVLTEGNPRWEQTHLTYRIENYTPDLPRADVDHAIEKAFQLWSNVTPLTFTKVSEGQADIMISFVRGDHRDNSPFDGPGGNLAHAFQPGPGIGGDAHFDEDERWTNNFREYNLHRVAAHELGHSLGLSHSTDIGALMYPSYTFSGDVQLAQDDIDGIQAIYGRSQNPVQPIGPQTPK
Experimental: (§1) To assess the selectivity of the compounds over human MMPs and on other bacterial collagenases, selected compounds were tested against ColG-CU and ColH-PD from C. histolyticum and ColA-CU from B. cereus strain ATCC14579. In addition, the compounds were tested on catalytic domains of three human MMPs, which are characterized by different depths of the S1′ binding pocket (MMP-1 (shallow), −2 (intermediate), and −3 (deep)). They were also tested against other important human off-targets, which are involved in gene expression and the processing of TNF-α; these include HDAC-3, -8, TACE (ADAM-17),[33],[34] and COX-1.
(§2) The MMP inhibition assay (Sigma-Aldrich, Saint Louise, MO) was performed as previously reported and in accordance with the manufacturer’s instructions. The fluorescence signals were measured in a CLARIOstar plate reader (BMG LABTECH, Ortenberg, Germany) at a concentration of 100 μM.

[2] = biological target: ColG-CU (Hathewaya histolytica, UniProt Q9X721); experiment: biochemical; type: biochemical, C. histolyticum; settings: 100 μM; read-out: Percent inhibition of ColG-CU
[3] = in vitro; settings: human, HepG2 cells (hepatocellular carcinoma)
[4] = system: B. cereus collagenases released in the NHDF infection model; type: cell-based, B. cereus AH187
[5] = biological target: ColH-PD (Hathewaya histolytica, UniProt Q46085); experiment: biochemical; type: biochemical, C. histolyticum; settings: 100 μM; read-out: Percent inhibition of ColH-PD
[6] = biological target: T2, MMP-2 (Homo sapiens, UniProt P08253); experiment: MMP inhibition assay, MMP-2; type: biochemical
T2 construct: catalytic domains of three human MMPs; purchased Sigma-Aldrich
Experimental: as §1, §2

[7] = system: B. cereus AH187; experiment: B. cereus growth inhibition assay; type: cell-based; settings: Bacillus cereus, AH187; BHI medium, 37 °C, 48 h, 200–3 μM; read-out: MIC50 (µM) AH187
[8] = biological target: ColQ1-FL (Bacillus cereus, UniProt B9J3S4); type: biochemical; settings: SDS-PAGE
[9] = in vitro; settings: human, NHDF cells (normal human dermal fibroblasts)
[10] = biological target: T3, HDAC-8 (Homo sapiens, UniProt Q9BY41); experiment: Human off-target inhibition, HDAC-8; type: biochemical
T3 sequence (Q9BY41 1-377): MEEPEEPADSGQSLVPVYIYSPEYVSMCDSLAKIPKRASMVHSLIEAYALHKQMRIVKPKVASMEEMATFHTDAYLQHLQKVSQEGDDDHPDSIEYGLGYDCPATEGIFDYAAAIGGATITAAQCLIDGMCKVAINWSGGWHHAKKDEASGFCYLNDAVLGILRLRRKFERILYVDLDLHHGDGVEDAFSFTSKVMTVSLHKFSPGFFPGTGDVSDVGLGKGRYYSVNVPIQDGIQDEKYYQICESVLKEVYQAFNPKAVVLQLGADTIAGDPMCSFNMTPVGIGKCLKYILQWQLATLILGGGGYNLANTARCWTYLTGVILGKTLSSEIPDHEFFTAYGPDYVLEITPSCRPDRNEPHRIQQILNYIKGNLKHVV
Experimental: as §1

[11] = system: NHDF cells infected with B. cereus; experiment: NHDF infection model, cell morphology/attachment and fibrillar collagen (picrosirius red); type: cell-based, human; settings: B. cereus infection, 5 h
[12] = system: MDCK II cells infected with B. cereus AH187; type: cell-based, canine
[13] = biological target: TACE (ADAM-17) (Homo sapiens, UniProt P78536); experiment: Human off-target inhibition, TACE; type: biochemical
Experimental: as §1

[14] = biological target: ColA-CU (Bacillus cereus, UniProt Q81BJ6); experiment: biochemical; type: biochemical, B. cereus strain ATCC14579; settings: 100 μM; read-out: Percent inhibition of ColA-CU
[15] = biological target: ColQ1-CU (Bacillus cereus, UniProt B9J3S4); experiment: biochemical; design: species or system B. cereus strain Q1
Chain of ColQ1-CU (B9J3S4 94-765 limits assumed): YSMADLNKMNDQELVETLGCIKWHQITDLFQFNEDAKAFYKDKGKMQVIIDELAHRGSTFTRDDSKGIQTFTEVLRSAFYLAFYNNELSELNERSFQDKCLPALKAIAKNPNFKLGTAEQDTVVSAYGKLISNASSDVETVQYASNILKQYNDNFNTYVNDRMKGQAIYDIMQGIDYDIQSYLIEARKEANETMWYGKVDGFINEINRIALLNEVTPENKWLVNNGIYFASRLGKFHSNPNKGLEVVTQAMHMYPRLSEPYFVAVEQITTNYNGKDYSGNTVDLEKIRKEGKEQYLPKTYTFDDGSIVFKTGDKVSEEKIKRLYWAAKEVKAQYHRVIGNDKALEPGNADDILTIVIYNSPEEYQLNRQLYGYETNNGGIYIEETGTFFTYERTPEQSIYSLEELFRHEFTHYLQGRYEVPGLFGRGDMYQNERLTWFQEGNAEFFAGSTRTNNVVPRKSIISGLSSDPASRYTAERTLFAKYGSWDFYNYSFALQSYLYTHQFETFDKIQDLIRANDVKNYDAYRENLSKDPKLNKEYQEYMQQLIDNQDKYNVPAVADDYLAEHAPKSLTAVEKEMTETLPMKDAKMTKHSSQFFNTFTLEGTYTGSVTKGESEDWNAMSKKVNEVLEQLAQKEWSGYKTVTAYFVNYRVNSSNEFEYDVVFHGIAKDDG

Chain of ColA-CU (Q81BJ6 93-764): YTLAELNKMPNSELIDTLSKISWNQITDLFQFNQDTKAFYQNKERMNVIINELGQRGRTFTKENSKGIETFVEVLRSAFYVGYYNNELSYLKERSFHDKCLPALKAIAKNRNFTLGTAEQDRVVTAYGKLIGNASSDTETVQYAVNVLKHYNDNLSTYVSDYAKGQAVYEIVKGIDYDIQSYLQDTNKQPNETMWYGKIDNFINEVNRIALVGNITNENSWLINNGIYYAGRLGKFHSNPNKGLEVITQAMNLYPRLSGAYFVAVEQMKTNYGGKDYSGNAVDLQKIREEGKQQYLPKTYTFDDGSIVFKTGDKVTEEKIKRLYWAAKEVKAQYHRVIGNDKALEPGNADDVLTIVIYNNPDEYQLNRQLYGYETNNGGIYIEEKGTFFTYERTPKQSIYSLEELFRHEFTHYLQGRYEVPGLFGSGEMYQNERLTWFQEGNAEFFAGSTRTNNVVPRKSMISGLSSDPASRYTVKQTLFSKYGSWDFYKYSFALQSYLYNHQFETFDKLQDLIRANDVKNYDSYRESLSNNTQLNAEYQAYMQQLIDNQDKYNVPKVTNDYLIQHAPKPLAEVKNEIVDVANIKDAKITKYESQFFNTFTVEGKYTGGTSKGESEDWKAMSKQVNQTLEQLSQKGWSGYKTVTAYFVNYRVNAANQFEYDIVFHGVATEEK
Chain of ColH-PD (Q46085 331-721 limits assumed): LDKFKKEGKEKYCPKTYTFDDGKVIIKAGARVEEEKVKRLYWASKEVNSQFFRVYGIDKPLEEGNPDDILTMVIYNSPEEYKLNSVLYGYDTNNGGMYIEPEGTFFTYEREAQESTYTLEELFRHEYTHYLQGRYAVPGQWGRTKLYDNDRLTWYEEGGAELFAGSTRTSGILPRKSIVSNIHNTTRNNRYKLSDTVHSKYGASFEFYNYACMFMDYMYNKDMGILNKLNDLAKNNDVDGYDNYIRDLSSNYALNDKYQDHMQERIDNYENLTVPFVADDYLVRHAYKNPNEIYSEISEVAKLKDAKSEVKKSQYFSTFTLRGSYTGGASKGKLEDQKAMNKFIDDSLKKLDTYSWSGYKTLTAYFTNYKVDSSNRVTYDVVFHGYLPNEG
Chain of TACE (ADAM-17) (P78536 215-824): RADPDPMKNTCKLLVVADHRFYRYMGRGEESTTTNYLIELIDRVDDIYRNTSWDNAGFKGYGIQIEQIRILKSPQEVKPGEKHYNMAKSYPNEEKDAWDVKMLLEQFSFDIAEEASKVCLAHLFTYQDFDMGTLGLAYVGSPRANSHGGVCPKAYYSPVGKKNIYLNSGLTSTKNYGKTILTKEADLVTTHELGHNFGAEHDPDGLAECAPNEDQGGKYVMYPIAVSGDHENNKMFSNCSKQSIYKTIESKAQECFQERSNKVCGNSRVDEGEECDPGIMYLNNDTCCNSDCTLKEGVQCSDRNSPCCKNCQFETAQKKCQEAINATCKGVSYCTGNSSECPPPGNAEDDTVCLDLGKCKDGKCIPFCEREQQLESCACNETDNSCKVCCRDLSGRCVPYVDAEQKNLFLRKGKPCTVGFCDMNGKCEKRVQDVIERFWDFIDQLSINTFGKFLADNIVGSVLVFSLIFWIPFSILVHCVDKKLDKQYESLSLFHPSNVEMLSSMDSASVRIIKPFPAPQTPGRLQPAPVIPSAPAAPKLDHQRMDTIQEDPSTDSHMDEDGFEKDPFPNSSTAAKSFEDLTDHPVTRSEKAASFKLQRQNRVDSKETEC
Chain of ColQ1-FL (B9J3S4 94-965 limits assumed): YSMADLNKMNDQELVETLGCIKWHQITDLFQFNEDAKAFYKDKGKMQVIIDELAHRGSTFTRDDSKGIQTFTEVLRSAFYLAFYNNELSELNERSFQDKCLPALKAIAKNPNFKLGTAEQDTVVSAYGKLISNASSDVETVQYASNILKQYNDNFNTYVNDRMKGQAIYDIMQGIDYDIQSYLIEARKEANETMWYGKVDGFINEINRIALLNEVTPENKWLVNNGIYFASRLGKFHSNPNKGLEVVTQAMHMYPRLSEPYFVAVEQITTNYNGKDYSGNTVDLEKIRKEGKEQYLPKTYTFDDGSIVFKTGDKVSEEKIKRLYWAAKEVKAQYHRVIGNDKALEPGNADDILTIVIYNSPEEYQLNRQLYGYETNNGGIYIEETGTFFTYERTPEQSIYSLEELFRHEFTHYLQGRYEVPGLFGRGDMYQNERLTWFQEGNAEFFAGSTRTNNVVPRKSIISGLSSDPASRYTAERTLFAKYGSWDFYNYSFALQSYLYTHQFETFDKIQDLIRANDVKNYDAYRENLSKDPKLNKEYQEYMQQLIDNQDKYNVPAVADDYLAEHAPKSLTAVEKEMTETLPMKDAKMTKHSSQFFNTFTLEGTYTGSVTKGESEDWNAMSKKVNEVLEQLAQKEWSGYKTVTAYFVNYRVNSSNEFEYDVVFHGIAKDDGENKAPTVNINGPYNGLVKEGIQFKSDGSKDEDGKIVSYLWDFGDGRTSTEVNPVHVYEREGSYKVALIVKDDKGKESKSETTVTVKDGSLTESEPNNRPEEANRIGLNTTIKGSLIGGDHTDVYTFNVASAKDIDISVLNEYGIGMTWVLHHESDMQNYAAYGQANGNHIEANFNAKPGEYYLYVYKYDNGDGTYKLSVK
Chain of ColG-CU (Q9X721 111-786): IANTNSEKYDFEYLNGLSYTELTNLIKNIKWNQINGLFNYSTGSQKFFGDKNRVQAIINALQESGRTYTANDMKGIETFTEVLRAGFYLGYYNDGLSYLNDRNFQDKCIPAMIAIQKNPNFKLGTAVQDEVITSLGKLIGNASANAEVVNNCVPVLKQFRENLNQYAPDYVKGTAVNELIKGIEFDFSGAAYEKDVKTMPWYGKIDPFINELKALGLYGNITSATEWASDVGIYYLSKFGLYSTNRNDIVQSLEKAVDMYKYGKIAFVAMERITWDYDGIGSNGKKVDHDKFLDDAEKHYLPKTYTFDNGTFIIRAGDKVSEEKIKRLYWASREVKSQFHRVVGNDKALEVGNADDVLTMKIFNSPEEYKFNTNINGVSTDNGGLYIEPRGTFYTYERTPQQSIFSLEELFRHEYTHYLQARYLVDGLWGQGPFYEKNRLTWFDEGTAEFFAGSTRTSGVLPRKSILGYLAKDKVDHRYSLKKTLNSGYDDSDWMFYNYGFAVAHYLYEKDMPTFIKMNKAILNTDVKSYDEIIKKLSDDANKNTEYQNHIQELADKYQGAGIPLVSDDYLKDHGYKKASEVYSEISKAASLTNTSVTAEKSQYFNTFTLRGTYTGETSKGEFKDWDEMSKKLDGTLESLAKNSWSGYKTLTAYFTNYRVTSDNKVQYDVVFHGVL
T2 sequence (P08253 110-444 limits assumed): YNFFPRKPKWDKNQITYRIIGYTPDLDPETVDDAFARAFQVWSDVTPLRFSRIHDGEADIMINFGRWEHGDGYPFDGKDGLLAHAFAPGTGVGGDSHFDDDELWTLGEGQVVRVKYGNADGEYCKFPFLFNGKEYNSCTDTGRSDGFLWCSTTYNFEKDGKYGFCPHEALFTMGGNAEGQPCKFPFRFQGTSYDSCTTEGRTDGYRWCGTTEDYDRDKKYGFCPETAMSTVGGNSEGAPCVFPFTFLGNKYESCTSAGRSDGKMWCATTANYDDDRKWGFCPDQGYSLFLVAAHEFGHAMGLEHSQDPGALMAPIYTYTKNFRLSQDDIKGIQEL

O=P(O)(O)c1nc2cc(Cl)c(Cl)cc2nc1P(=O)(O)O [Compound 13, (6,7-Dichloroquinoxaline-2,3-diyl)bis(phosphonic acid)]
IC50 [1]: 53 ± 3 µM | inhibition at 100 µM [2]: 68 ± 4% | IC50 [3]: > 100 µM | Concentration giving complete inhibition of gelatinolytic activity [4]: 200 µM | inhibition at 100 µM [5]: 83 ± 9% | IC50 [6]: 79 ± 2 µM | MIC50 [7]: 200 µM (≈ 71.8 µg/mL) | Concentration above which Col I chains were maintained ([8]; 1 mg/mL Col I, 50 ng ColQ1-FL): above 3 μM | IC50 [9]: > 200 µM | IC50 [10]: > 100 µM | Concentration above which infected cells were sustained (attached, spindle shape) [11]: > 25 µM | TEER of infected MDCK II cells [12]: failed to sustain the TEER of the infected cells | IC50 [13]: > 100 µM | inhibition at 100 µM [14]: 71 ± 4% | IC50 [15]: 5.2 ± 0.4 µM | inhibition at 100 µM ([15]; read-out: % Inhibition (ColQ1-CU) Mean): 98 ± 1%

O=C(Nc1ccc(Cl)c(Cl)c1)c1ccc2nc(P(=O)(O)O)c(P(=O)(O)O)nc2c1 [Compound 14, (6-((3,4-Dichlorophenyl)carbamoyl)quinoxaline-2,3-diyl)bis(phosphonic acid)]
IC50 [1]: > 100 µM | inhibition at 100 µM [2]: 72 ± 3% | IC50 [3]: > 100 µM | Concentration giving complete inhibition of gelatinolytic activity [4]: 100 µM | inhibition at 100 µM [5]: 96 ± 2% | IC50 [6]: > 100 µM | MIC50 [7]: 100 µM (≈ 47.8 µg/mL) | Protection of Col I chains from cleavage by ColQ1-FL ([8]; 12.5–1.5 μM tested): inhibited the collagenase activity at all concentrations tested | IC50 [9]: > 100 µM | IC50 [10]: > 100 µM | Concentration above which infected cells were sustained (attached, spindle shape) [11]: > 25 µM | TEER of infected MDCK II cells [12]: preserve the TEER value | IC50 [13]: > 100 µM | inhibition at 100 µM [14]: 82 ± 2% | IC50 [15]: 16 ± 1 µM
